Data reported in PubChem BioAssay AID1963961 (Molecular Pharmacology Branch, DTP, NCI, 2024).

Tested on: K98450-129-R-PDC multicell spheroids, viability
Assay: Anticancer human tumor K98450-129-R-PDC patient-derived colon adenocarcinoma cell line growth inhibition [PI3K]
Conditions: for IC50: curve of first compound; for viability, T/C: stronger effect = lower value
Summary of the method: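 Stroma-containing spheroids: tumor line, pooled-donor HUVEC, hMSC. Treatments: targeted agents with PI3K inhibitors. Dosing: clinically relevant, half-log spacing, 10 microM ceiling without known Cmax. Read-out: cell viability.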

[1] = second compound 0.00316 µM, first compound 0.000316 µM
[2] = second compound 0.00316 µM, first compound 0.001 µM
[3] = second compound 0.00316 µM, first compound 0.00316 µM
[4] = second compound 0.00316 µM, first compound 0.01 µM
[5] = second compound 0.00316 µM, first compound 0.0316 µM
[6] = second compound 0.00316 µM, first compound 0.1 µM
[7] = second compound 0.01 µM, first compound 0.000316 µM
[8] = second compound 0.01 µM, first compound 0.001 µM
[9] = second compound 0.01 µM, first compound 0.00316 µM
[10] = second compound 0.01 µM, first compound 0.01 µM
[11] = second compound 0.01 µM, first compound 0.0316 µM
[12] = second compound 0.01 µM, first compound 0.1 µM
[13] = second compound 0.0316 µM, first compound 0.000316 µM
[14] = second compound 0.0316 µM, first compound 0.001 µM
[15] = second compound 0.0316 µM, first compound 0.00316 µM
[16] = second compound 0.0316 µM, first compound 0.01 µM
[17] = second compound 0.0316 µM, first compound 0.0316 µM
[18] = second compound 0.0316 µM, first compound 0.1 µM
[19] = second compound 0.1 µM, first compound 0.000316 µM
[20] = second compound 0.1 µM, first compound 0.001 µM
[21] = second compound 0.1 µM, first compound 0.00316 µM
[22] = second compound 0.1 µM, first compound 0.01 µM
[23] = second compound 0.1 µM, first compound 0.0316 µM
[24] = second compound 0.1 µM, first compound 0.1 µM
[25] = second compound 0.316 µM, first compound 0.000316 µM
[26] = second compound 0.316 µM, first compound 0.001 µM
[27] = second compound 0.316 µM, first compound 0.00316 µM
[28] = second compound 0.316 µM, first compound 0.01 µM
[29] = second compound 0.316 µM, first compound 0.0316 µM
[30] = second compound 0.316 µM, first compound 0.1 µM
[31] = second compound 1 µM, first compound 0.000316 µM
[32] = second compound 1 µM, first compound 0.001 µM
[33] = second compound 1 µM, first compound 0.00316 µM
[34] = second compound 1 µM, first compound 0.01 µM
[35] = second compound 1 µM, first compound 0.0316 µM
[36] = second compound 1 µM, first compound 0.1 µM
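Also: spheroids exposed to agents for seven days before read-out.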

Cn1ncnc1[C@H]1c2n[nH]c(=O)c3cc(F)cc(c23)N[C@@H]1c1ccc(F)cc1 + CC(Nc1ccc2c(c1)OCCn1cc(N3C(=O)OCC3C(F)F)nc1-2)C(N)=O
IC50 (second compound 0.00316 µM): > 100 nM | IC50 (second compound 0.01 µM): > 100 nM | IC50 (second compound 0.0316 µM): > 100 nM | IC50 (second compound 0.1 µM): > 100 nM | IC50 (second compound 0.316 µM): > 100 nM | IC50 (second compound 1 µM): > 100 nM | viability, T/C [1]: 112% | viability, T/C [2]: 92.8% | viability, T/C [3]: 100% | viability, T/C [4]: 96.5% | viability, T/C [5]: 102% | viability, T/C [6]: 95.4% | viability, T/C [7]: 114% | viability, T/C [8]: 92.8% | viability, T/C [9]: 99.2% | viability, T/C [10]: 93.8% | viability, T/C [11]: 95.9% | viability, T/C [12]: 94.3% | viability, T/C [13]: 104% | viability, T/C [14]: 99% | viability, T/C [15]: 89.3% | viability, T/C [16]: 100% | viability, T/C [17]: 98.5% | viability, T/C [18]: 96.9% | viability, T/C [19]: 92% | viability, T/C [20]: 100% | viability, T/C [21]: 99% | viability, T/C [22]: 95.1% | viability, T/C [23]: 104% | viability, T/C [24]: 89.8% | viability, T/C [25]: 90.6% | viability, T/C [26]: 89.5% | viability, T/C [27]: 96% | viability, T/C [28]: 91.6% | viability, T/C [29]: 100% | viability, T/C [30]: 92.6% | viability, T/C [31]: 88.4% | viability, T/C [32]: 92.2% | viability, T/C [33]: 88.8% | viability, T/C [34]: 88.6% | viability, T/C [35]: 93.6% | viability, T/C [36]: 86.9%

CC(=O)c1c(C)c2cnc(Nc3ccc(N4CCNCC4)cn3)nc2n(C2CCCC2)c1=O + COc1c(OCCCN2CCOCC2)ccc2c3n(c(=NC(=O)c4cnc(N)nc4)nc12)CCN3
IC50 (second compound 0.00316 µM): > 100 nM | IC50 (second compound 0.01 µM): > 100 nM | IC50 (second compound 0.0316 µM): > 100 nM | IC50 (second compound 0.1 µM): > 100 nM | IC50 (second compound 0.316 µM): > 100 nM | IC50 (second compound 1 µM): 46 nM | viability, T/C [1]: 114% | viability, T/C [2]: 119% | viability, T/C [3]: 93.7% | viability, T/C [4]: 90.5% | viability, T/C [5]: 101% | viability, T/C [6]: 95.8% | viability, T/C [7]: 109% | viability, T/C [8]: 101% | viability, T/C [9]: 97.3% | viability, T/C [10]: 91.1% | viability, T/C [11]: 98.1% | viability, T/C [12]: 92.4% | viability, T/C [13]: 85.7% | viability, T/C [14]: 96.7% | viability, T/C [15]: 97.3% | viability, T/C [16]: 87.6% | viability, T/C [17]: 86.5% | viability, T/C [18]: 70.4% | viability, T/C [19]: 78.9% | viability, T/C [20]: 81.1% | viability, T/C [21]: 74.3% | viability, T/C [22]: 67% | viability, T/C [23]: 79.3% | viability, T/C [24]: 72.1% | viability, T/C [25]: 59% | viability, T/C [26]: 68.7% | viability, T/C [27]: 65.7% | viability, T/C [28]: 58.2% | viability, T/C [29]: 70% | viability, T/C [30]: 56.1% | viability, T/C [31]: 62% | viability, T/C [32]: 48.5% | viability, T/C [33]: 51.6% | viability, T/C [34]: 57.7% | viability, T/C [35]: 57.8% | viability, T/C [36]: 38.8%

CC(Cn1ccc(-c2ccc(C#N)c(Cl)c2)n1)NC(=O)c1cc(C(C)O)[nH]n1 (stereo unspecified) + CC(Nc1ncnc2nc[nH]c12)c1cc2cccc(Cl)c2c(=O)n1-c1ccccc1
IC50 (second compound 0.0316 µM): > 10000 nM | IC50 (second compound 0.1 µM): > 10000 nM | IC50 (second compound 0.316 µM): > 10000 nM | IC50 (second compound 1 µM): > 10000 nM | IC50 (second compound 3.16 µM): > 10000 nM | IC50 (second compound 10 µM): > 10000 nM | viability, T/C [17]: 119% | viability, T/C [18]: 101% | viability, T/C (second compound 0.0316 µM, first compound 0.316 µM): 87.3% | viability, T/C (second compound 0.0316 µM, first compound 1 µM): 92.5% | viability, T/C (second compound 0.0316 µM, first compound 3.16 µM): 102% | viability, T/C (second compound 0.0316 µM, first compound 10 µM): 101% | viability, T/C [23]: 106% | viability, T/C [24]: 113% | viability, T/C (second compound 0.1 µM, first compound 0.316 µM): 107% | viability, T/C (second compound 0.1 µM, first compound 1 µM): 96.5% | viability, T/C (second compound 0.1 µM, first compound 3.16 µM): 98.5% | viability, T/C (second compound 0.1 µM, first compound 10 µM): 103% | viability, T/C [29]: 99.5% | viability, T/C [30]: 109% | viability, T/C (second compound 0.316 µM, first compound 0.316 µM): 92.5% | viability, T/C (second compound 0.316 µM, first compound 1 µM): 92.3% | viability, T/C (second compound 0.316 µM, first compound 3.16 µM): 104% | viability, T/C (second compound 0.316 µM, first compound 10 µM): 99% | viability, T/C [35]: 94.7% | viability, T/C [36]: 95.2% | viability, T/C (second compound 1 µM, first compound 0.316 µM): 91.7% | viability, T/C (second compound 1 µM, first compound 1 µM): 99.1% | viability, T/C (second compound 1 µM, first compound 3.16 µM): 93.4% | viability, T/C (second compound 1 µM, first compound 10 µM): 88% | viability, T/C (second compound 3.16 µM, first compound 0.0316 µM): 72.7% | viability, T/C (second compound 3.16 µM, first compound 0.1 µM): 86.1% | viability, T/C (second compound 3.16 µM, first compound 0.316 µM): 86.7% | viability, T/C (second compound 3.16 µM, first compound 1 µM): 80.3% | viability, T/C (second compound 3.16 µM, first compound 3.16 µM): 103% | viability, T/C (second compound 3.16 µM, first compound 10 µM): 84% | viability, T/C (second compound 10 µM, first compound 0.0316 µM): 84.1% | viability, T/C (second compound 10 µM, first compound 0.1 µM): 87.4% | viability, T/C (second compound 10 µM, first compound 0.316 µM): 83% | viability, T/C (second compound 10 µM, first compound 1 µM): 88.7% | viability, T/C (second compound 10 µM, first compound 3.16 µM): 81.8% | viability, T/C (second compound 10 µM, first compound 10 µM): 84.8%
